Experiments:
Assay type in all cases: in vivo
[1] = tested on: Amaranthus hybridus (AMACH); test: Post-emergence field trial, herbicidal activity on AMACH
Experimental: (§1) In the examples below, using the method of S. R. Colby (1967) “Calculating synergistic and antagonistic responses of herbicide combinations”, Weeds 15, p. 22ff., the value E, which is expected if the activity of the individual active compounds is only additive, was calculated:
(§2) [formula] • where • X=percent activity using active herbicide A at an application rate a; • Y=percent activity using active herbicide B (e.g. imazethapyr) at an application rate b; • E=expected activity (in %) by A+B at application rates a+b.
(§3) If the value found experimentally is higher than the value E calculated according to Colby, a synergistic effect is present.
(§4) On field test sites, natural weed infestation or seeded weeds were treated post-emergence of the weeds.
(§5) In the field trials, the weeds were treated as indicated below.
(§6) In the following experiments, the herbicidal activity for the individual herbicidal compositions (solo and mixture applications) was assessed at the indicated days after treatment (DAT). The assessments for the damage on undesired weeds caused by the composition was carried out using a scale from 0 to 100%, compared to the untreated control plants. Here, 0 means no damage and 100 means complete destruction of the plants.
Herbicide A-1 (342 g/I) and imazethapyr-ammonium were, together with addition of 0.25 l/ha Dash® MSO Max as adjuvant, formulated in water as distribution medium (water volume 200 l/ha) and sprayed with commercial flat fan nozzles.

[2] = tested on: Amaranthus cruentus (AMACR); test: Post-emergence field trial, herbicidal activity on AMACR; settings: height 20-25 cm, 25 DAT, 0.25 l/ha Dash MSO Max
Experimental: as §1, §2, §3, §4, §5
as §6, with “the plants. […]” for “the plants.”

[3] = tested on: Amaranthus viridis (AMAVI); test: Post-emergence field trial, herbicidal activity on AMAVI; settings: growth stage 16-18, height 10-15 cm, 20 DAT, 0.5% MSO
Experimental: as §1, §2, §3, §4, §5, §6
(§7) Herbicide A-1 (342 g/l) and imazethapyr-ammonium were, together with addition of 0.5% MSO (methylated seed oil) as adjuvant, formulated in water as distribution medium (water volume […]) and sprayed with commercial flat fan nozzles.

[4] = tested on: Spermacoce latifolia (BOILF); test: Post-emergence field trial, herbicidal activity on BOILF; settings: 21 DAT
Experimental: as §1, §2, §3, §4, §5, §6, §7

[5] = tested on: Brachiaria plantaginea (BRAPL); test: Post-emergence field trial, herbicidal activity on BRAPL; settings: for % herbicidal activity: Table 2.5, 21 DAT, growth stage 24
Experimental: as §1, §2, §3, §4, §5, §6, §7

[6] = tested on: Digitaria horizontalis (DIGHO); test: Post-emergence field trial, herbicidal activity on DIGHO; settings: Table 2.5, 21 DAT, growth stage 24
Experimental: as §1, §2, §3, §4, §5
as §6, with “the plants. […]” for “the plants.”

[7] = tested on: Digitaria insularis (DIGIN); test: Post-emergence field trial, herbicidal activity on DIGIN; settings: Table 2.4, 21 DAT, weed height 20-40 cm
Experimental: as §1, §2, §3, §4, §5
as §6, with “the plants. […]” for “the plants.”

[8] = tested on: Eleusine indica (ELEIN); test: Post-emergence field trial, herbicidal activity on ELEIN; settings: 21 DAT
Experimental: as §1, §2, §3, §4, §5, §6, §7

[9] = tested on: Euphorbia heterophylla (EPHHL); test: Post-emergence field trial, herbicidal activity on EPHHL; settings: 21 DAT
Experimental: as §1, §2, §3, §4, §5, §6, §7

[10] = tested on: Galinsoga parviflora (GASPA); test: Post-emergence field trial, herbicidal activity on GASPA; settings: Table 2.6, 21 DAT, weed height 15-35 cm
Experimental: as §1, §2, §3, §4, §5
as §6, with “the plants. […]” for “the plants.”

[11] = tested on: Ipomoea triloba (IPOTR); test: Post-emergence field trial, herbicidal activity on IPOTR; settings: 21 DAT
Experimental: as §1, §2, §3, §4, §5, §6, §7

[12] = tested on: Portulaca oleracea (POROL); test: Post-emergence field trial, herbicidal activity on POROL; settings: growth stage 14-16, height 5-10 cm, 20 DAT, 0.5% MSO
Experimental: as §1, §2, §3, §4, §5
as §6, with “the plants. […]” for “the plants.”

For `CCOC(=O)COc1ccccc1Oc1nc(-n2c(=O)cc(C(F)(F)F)n(C)c2=O)c(F)cc1Cl` [Herbicide A-1, ethyl 2-[2-[[3-chloro-5-fluoro-6-[3-methyl-2,6-dioxo-4-(trifluoromethyl)pyrimidin-1-yl]-2-pyridyl]oxy]phenoxy]acetate], the “% herbicidal activity A-1” value ([1]; AMACH, height 20-25 cm, A-1 25 g ai/ha solo, 25 DAT, 0.25 l/ha Dash MSO Max) was 91%, the “% herbicidal activity” value ([1]; Table 3.1, 21 DAT, A-1 50 g ai/ha alone, growth stage 35) was 85% and the “% herbicidal activity A-1” value ([2]; A-1 25 g ai/ha solo) was 93%. The “% herbicidal activity A-1” value ([3]; A-1 25 g ai/ha solo) was 69%, the “% herbicidal activity A-1” value ([3]; A-1 50 g ai/ha solo) was 84% and the “% herbicidal activity A-1” value ([4]; BOILF, growth stage 40, A-1 25 g ai/ha solo, 0.5% MSO) was 81%. The “% herbicidal activity” value ([4]; Table 3.1, A-1 25 g ai/ha alone, growth stage 40) was 81%, the “% herbicidal activity A-1” value ([5]; BRAPL, growth stage 21-25, height 10-15 cm, A-1 50 g ai/ha solo, 20 DAT, 0.5% MSO) was 73% and the “% herbicidal activity” value ([5]; A-1 25 g ai/ha alone) was 83%. For the same molecule, the “% herbicidal activity” value ([5]; A-1 50 g ai/ha alone) was 93%, the “% herbicidal activity” value ([6]; A-1 50 g ai/ha alone) was 50% and the “% herbicidal activity” value ([7]; A-1 50 g ai/ha alone) was 38%. The “% herbicidal activity A-1” value ([8]; ELEIN, height 20-25 cm, A-1 25 g ai/ha solo, 0.5% MSO) was 45%, the “% herbicidal activity” value ([8]; Table 2.7, A-1 50 g ai/ha alone, growth stage 35-61, height 3-5 cm) was 87% and the “% herbicidal activity” value ([8]; Table 3.2, A-1 50 g ai/ha alone, weed height 20-25 cm) was 55%. The “% herbicidal activity A-1” value ([9]; EPHHL, growth stage 35, A-1 50 g ai/ha solo, 0.5% MSO) was 86%, the “% herbicidal activity” value ([9]; Table 2.6, A-1 50 g ai/ha alone, weed height 15-35 cm) was 96% and the “% herbicidal activity” value ([9]; Table 2.7, A-1 25 g ai/ha alone, growth stage 18-65, height 5-15 cm) was 94%. The “% herbicidal activity” value ([10]; A-1 50 g ai/ha alone) was 92%, the “% herbicidal activity A-1” value ([11]; IPOTR, growth stage 35, A-1 25 g ai/ha solo, 0.5% MSO) was 61% and the “% herbicidal activity” value ([11]; Table 3.1, A-1 25 g ai/ha alone, growth stage 35) was 61%. For the same molecule, the “% herbicidal activity A-1” value ([12]; A-1 50 g ai/ha solo) was 58%.
With `CCc1cnc(C2=NC(C)(C(C)C)C(=O)N2)c(C(=O)O)c1.N` (stereo not drawn) [Herbicide B-2, imazethapyr-ammonium, reference compound] the “% herbicidal activity B-2” value ([1]; AMACH, height 20-25 cm, B-2 100 g ai/ha solo, 25 DAT, 0.25 l/ha Dash MSO Max) was 7%, the “% herbicidal activity B-2” value ([2]; B-2 100 g ai/ha solo) was 58% and the “% herbicidal activity B-2” value ([3]; B-2 100 g ai/ha solo) was 22%. The “% herbicidal activity B-2” value ([4]; BOILF, growth stage 40, B-2 100 g ai/ha solo, 0.5% MSO) was 23%, the “% herbicidal activity B-2” value ([5]; BRAPL, growth stage 21-25, height 10-15 cm, B-2 100 g ai/ha solo, 20 DAT, 0.5% MSO) was 0% and the “% herbicidal activity” value ([5]; B-2 100 g ai/ha alone, listed as with A-1 25 g ai/ha) was 0%. For the same molecule, the “% herbicidal activity” value ([5]; B-2 100 g ai/ha alone, listed as with A-1 50 g ai/ha) was 0%, the “% herbicidal activity” value ([6]; B-2 100 g ai/ha alone) was 0% and the “% herbicidal activity” value ([7]; B-2 100 g ai/ha alone) was 13%. For the same molecule, the “% herbicidal activity B-2” value ([8]; ELEIN, height 20-25 cm, B-2 100 g ai/ha solo, 0.5% MSO) was 0%, the “% herbicidal activity” value ([8]; Table 2.7, B-2 100 g ai/ha alone, growth stage 35-61, height 3-5 cm) was 10% and the “% herbicidal activity B-2” value ([9]; EPHHL, growth stage 35, B-2 100 g ai/ha solo, 0.5% MSO) was 10%. The “% herbicidal activity” value ([9]; Table 2.6, B-2 100 g ai/ha alone, weed height 15-35 cm) was 0%, the “% herbicidal activity” value ([9]; Table 2.7, B-2 100 g ai/ha alone, growth stage 18-65, height 5-15 cm) was 20% and the “% herbicidal activity” value ([10]; B-2 100 g ai/ha alone) was 0%. The “% herbicidal activity B-2” value ([11]; IPOTR, growth stage 35, B-2 100 g ai/ha solo, 0.5% MSO) was 22% and the “% herbicidal activity B-2” value ([12]; B-2 100 g ai/ha solo) was 30%.
